Data on 6 compounds can be found in patent publication US7622269B2, “Methods of screening tyramine- and octopamine-expressing cells for compounds and compositions having potential insect control activity” (Tyratech, Inc., priority 2004, dated 2009).

The structures appear in SMILES notation.

This test has as its system octopamine synthesis mutant (iav) Drosophila melanogaster strain. It is filed as in vivo. Conditions: for toxicity in iav strain compared with wild type: in vivo; for % Mortality at LD50 of wild/type Drosophila melanogaster strain, iav: topical, 24 hour.

With `CCC(=O)OCCc1ccccc1` [2-phenylethyl propionate], the “toxicity in iav strain compared with wild type” value is listed as “remarkably increased” and the “% Mortality at LD50 of wild/type Drosophila melanogaster strain, iav” value is given as 80.0%.

On to `OCC=Cc1ccccc1` [cinnamic alcohol, 3-phenyl-2-propen-1-ol], for which the “toxicity in iav strain compared with wild type” value is “remarkably increased” and the “% Mortality at LD50 of wild/type Drosophila melanogaster strain, iav” value is listed as 80.0%.

For `C=CCc1ccc(O)c(OC)c1` [eugenol, 2-methoxy-4-(2-propenyl)phenol], the “toxicity in iav strain compared with wild type” value is on record as “remarkably increased” and the “% Mortality at LD50 of wild/type Drosophila melanogaster strain, iav” value was determined as 80.0%.

Turning to `CC(C)=CCCC(C)=CCO` [geraniol, 3,7-dimethyl-2,6-octadien-1-ol], the “toxicity in iav strain compared with wild type” value is listed as “does not affect the toxicity” and the “% Mortality at LD50 of wild/type Drosophila melanogaster strain, iav” value was 60.0%.

With `COC(=O)c1ccccc1O` [methyl salicylate, 2-hydroxybenzoic acid methyl ester], the “toxicity in iav strain compared with wild type” value is “does not affect the toxicity” and the “% Mortality at LD50 of wild/type Drosophila melanogaster strain, iav” value is listed as 46.6%.

For `Cc1ccc(C(C)C)cc1` [p-cymene, methyl(1-methylethyl)benzene], the “toxicity in iav strain compared with wild type” value is “does not affect the toxicity” and the “% Mortality at LD50 of wild/type Drosophila melanogaster strain, iav” value amounted to 40.0%.
